Data as given in US5047406A, “Substituted cyclohexanols as central nervous system agents” (Warner-Lambert Co., priority 1990, dated 1991).
Where two headings read alike, the source gives them in different places.

Assays:
[1] = test system: Brain Striatal Dopamine Synthesis; test: Effects on brain striatal dopamine synthesis in rats; type: in vivo; settings: for inhibition in vivo at 10 mg/kg: Rattus norvegicus; for Effects on Brain Striatal Dopamine Synthesis in Rats, % inhibition: 10 mg/kg
Excerpt: (§1) The above test methods are incorporated herein by reference.

[2] = molecular target: sigma opiate binding site; test: Inhibition of [^3 H] DTG (ditoluoyl guanidine; a sigma ligand) binding
Procedure: The compounds of Formula I are valuable dopaminergic agents. […] Thus, the compounds of Formula I were tested for their ability to inhibit locomotor activity in mice according to the assay described by J. R. McLean, et al, Pharmacology, Biochemistry and Behavior, Volume 8, pages 97-99 (1978); for their ability to inhibit [[…] ]-spiroperidol binding in a receptor assay described by D. Grigoriadis and P. Seeman, Journal of Neurochemistry, Volume 44, pages 1925-1935 (1985); and for their ability to inhibit dopamine synthesis in rats according to the protocol described by J. R. Walters and R. H. Roth, Naunyn-Schmiedeberg's Archives of Pharmacology, Volume 296, pages 5-14 (1976). The above test methods are incorporated herein by reference. The data in the table show the dopaminergic activity of representative compounds of Formula I. Additionally, the compounds of Formula I are ligands for the sigma opiate binding site. The data in the table show the inhibition of [^3 H] DTG (ditoluoyl guanidine; a sigma ligand) binding by representative compounds of Formula I, according to the method of E. Weber, et al, Proceedings of the National Academy of Sciences, USA, Volume 83, pages 8784-8788 (1986).

[3] = molecular target: T1, [^3 H]-Spiroperidol Binding (Homo sapiens, UniProt P14416); test: Inhibition of [^3 H]-spiroperidol binding in a receptor assay
T1 construct: receptor assay described by D. Grigoriadis and P. Seeman, Journal of Neurochemistry, Volume 44, pages 1925-1935 (1985); from tissue
Excerpt: as §1

[4] = test system: Locomotor Activity in Mice; test: Inhibition of locomotor activity in mice; type: in vivo; settings: for ED50: Mus musculus, ip; for Inhibition of Locomotor Activity in Mice ED50: IP
Excerpt: as §1

[5] = read-out: Inhibition of [^3 H]-Spiroperidol Binding IC50

T1 sequence (P14416 whole entry): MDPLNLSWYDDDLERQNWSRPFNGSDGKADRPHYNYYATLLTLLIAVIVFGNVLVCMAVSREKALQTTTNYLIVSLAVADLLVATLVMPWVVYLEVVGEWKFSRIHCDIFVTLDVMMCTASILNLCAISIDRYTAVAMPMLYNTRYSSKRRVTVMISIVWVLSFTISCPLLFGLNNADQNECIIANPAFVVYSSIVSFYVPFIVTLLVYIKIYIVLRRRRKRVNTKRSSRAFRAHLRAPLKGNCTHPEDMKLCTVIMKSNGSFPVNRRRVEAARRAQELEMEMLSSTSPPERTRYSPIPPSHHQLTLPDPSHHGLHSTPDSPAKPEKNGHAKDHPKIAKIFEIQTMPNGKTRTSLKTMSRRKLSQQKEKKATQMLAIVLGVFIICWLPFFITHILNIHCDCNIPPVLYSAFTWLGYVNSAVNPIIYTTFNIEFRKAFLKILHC

Q: Which inhibition in vivo at 10 mg/kg ([1]; ip) does the source give for OC1(c2ccsc2)CCC(CCN2CCN(c3ccccn3)CC2)CC1 (stereo not shown) [Example 14, 4-[2-[4-(2-Pyridinyl)-1-piperazinyl]ethyl]-1-(3-thienyl)cyclohexanol] here?
A: 37%

Q: What about the IC50 [2] of the same molecule?
A: 4.5 nM

Q: And the IC50 [3, 5]?
A: 312 nM

Q: And the ED50 [4]?
A: 0.48 mg/kg

Q: Which inhibition in vivo at 10 mg/kg ([1]; ip) does the source give for O=C(N[C@H]1CC[C@H](CCN2CCN(c3ccccn3)CC2)CC1)c1ccccc1 [Example 52, trans N-[4-[2-[4-(2-Pyridinyl)-1-piperazinyl]ethyl]cyclohexyl]benzamide] here?
A: 87%

Q: What about the IC50 [3, 5] of the same molecule?
A: 440 nM

Q: What about the ED50 [4] of the same molecule?
A: 0.16 mg/kg

Q: Which results are given for O=C(N[C@H]1CC[C@H](CCN2CC=C(c3ccccc3)CC2)CC1)c1cccs1 [Example 71, trans N-[4-[2-(3,6-Dihydro-4-phenyl-1(2H)-pyridinyl)ethyl]cyclohexyl]-2-thiophenecarboxamide]?
A: inhibition in vivo at 10 mg/kg ([1]; IP): 79%; IC50 [3, 5]: 210 nM; ED50 [4]: 0.21 mg/kg

Q: What does the source list for OC1(c2ccccn2)CCC(CCN2CC=C(c3ccccc3)CC2)CC1 (stereo not drawn) [Example 11, cis-1-(2-Pyridinyl)-4-[2-[3,6-dihydro-4-phenyl-1(2H)-pyridinyl]ethyl]cyclohexanol]?
A: IC50 [2]: 3.5 nM; IC50 [3, 5]: 156 nM; ED50 [4]: 0.64 mg/kg

Q: Which results are given for O=C(N[C@H]1CC[C@H](N2CC=C(c3ccccc3)CC2)CC1)c1ccsc1 [Example 48, trans N-[4-(3,6-Dihydro-4-phenyl-1(2H)-pyridinyl)cyclohexyl]-3-thiophenecarboxamide]?
A: inhibition in vivo at 10 mg/kg ([1]; IP): 88%; IC50 ([3]; Inhibition of [^3 H]-Spiroperidol Binding IC50): 90 nM; ED50 [4]: 0.27 mg/kg

Q: Which inhibition in vivo at 10 mg/kg ([1]; IP) does the source give for OC1(c2cccnc2)CCC(CCN2CC=C(c3ccccc3)CC2)CC1 (stereo not drawn) [Example 12, cis-1-(3-Pyridinyl)-4-[2-[3,6-dihydro-4-phenyl-1(2H)-pyridinyl]ethyl]cyclohexanol] here?
A: 79%

Q: And the IC50 [3, 5]?
A: 116 nM

Q: And the ED50 [4]?
A: 0.25 mg/kg

Q: Which results are given for OC1(c2ccc(F)cc2)CCC(CCN2CCN(c3ccccn3)CC2)CC1 (stereo not shown) [Example 7, 1-(4-Fluorophenyl)-4-[2-[4-(2-pyridinyl)-1-piperazinyl]ethyl]cyclohexanol]?
A: inhibition in vivo at 10 mg/kg ([1]; ip): 48%; IC50 [2]: 16.5 nM; inhibition at 10 µM ([3]; at 10^-5 M): 94%; ED50 [4]: 0.64 mg/kg

Q: Which results are given for COc1ccc(C2(O)CCC(CCN3CCN(c4ccccn4)CC3)CC2)cc1 (stereo not drawn) [Example 15, trans-1-(4-Methoxyphenyl)-4-[2-[4-(2-pyridinyl)-1-piperazinyl]ethyl]cyclohexanol]?
A: Effects on Brain Striatal Dopamine Synthesis in Rats, % inhibition ([1]; IP): 52%; IC50 [3, 5]: 932 nM; Inhibition of Locomotor Activity in Mice ED50 [4]: 0.3 mg/kg

Q: Which “Effects on Brain Striatal Dopamine Synthesis in Rats, % inhibition” value ([1]; IP) does the source give for OC1(c2cccs2)CCC(CCN2CCN(c3ccccn3)CC2)CC1 (stereo not drawn) [Example 4, trans-4-[2-[4-(2-Pyridinyl)-1-piperazinyl]ethyl]-1-(2-thienyl)cyclohexanol] here?
A: 47%

Q: And the IC50 [2]?
A: 5 nM

Q: What about the IC50 [3, 5] of the same molecule?
A: 341 nM

Q: What about the “Inhibition of Locomotor Activity in Mice ED50” value [4] of the same molecule?
A: 1.1 mg/kg

Q: How did the inhibition in vivo at 10 mg/kg ([1]; ip) turn out when O=C(N[C@H]1CC[C@@H](CCN2CCN(c3ccccn3)CC2)CC1)c1ccccc1 [Example 53, cis N-[4-[2-[4-(2-Pyridinyl)-1-piperazinyl]ethyl]cyclohexyl]benzamide] was run?
A: 36%

Q: And the IC50 [3, 5]?
A: 3280 nM

Q: And the ED50 [4]?
A: 4.5 mg/kg

Q: For O=C(N[C@H]1CC[C@H](N2CC=C(c3ccccc3)CC2)CC1)c1cccnc1 [Example 49, trans N-[4-(3,6-Dihydro-4-phenyl-1(2H)-pyridinyl)cyclohexyl]-3-pyridinecarboxamide], which inhibition in vivo at 10 mg/kg ([1]; IP) is on record?
A: 72%

Q: What about the IC50 [3, 5] of the same molecule?
A: 600 nM

Q: And the ED50 [4]?
A: 2.4 mg/kg

Q: For O=C(N[C@H]1CC[C@H](N2CC=C(c3ccccc3)CC2)CC1)c1cccs1 [Example 47, trans N-[4-(3,6-Dihydro-4-phenyl-1(2H)-pyridinyl)cyclohexyl]-2-thiophenecarboxamide], which inhibition in vivo at 10 mg/kg ([1]; IP) is on record?
A: 74%

Q: What about the IC50 [3, 5] of the same molecule?
A: 300 nM

Q: What about the ED50 [4] of the same molecule?
A: 0.23 mg/kg

Q: What does the source list for OC1(c2cccs2)CCC(CCN2CCN(c3ccccn3)CC2)CC1 (stereo not drawn) [Example 3, cis-4-[2-[4-(2-Pyridinyl)-1-piperazinyl]ethyl]-1-(2-thienyl)cyclohexanol]?
A: inhibition in vivo at 10 mg/kg ([1]; ip): 67%; IC50 [2]: 6 nM; IC50 [3, 5]: 262 nM; ED50 [4]: 1.3 mg/kg

Q: What does the source list for COc1ccc(C2(O)CCC(CCN3CCN(c4ccccn4)CC3)CC2)cc1 (stereo not drawn) [Example 8, cis-1-(4-Methoxyphenyl)-4-[2-[4-(2-pyridinyl)-1-piperazinyl]ethyl]cyclohexanol]?
A: Effects on Brain Striatal Dopamine Synthesis in Rats, % inhibition ([1]; IP): 88%; IC50 [3, 5]: 169 nM; Inhibition of Locomotor Activity in Mice ED50 [4]: 0.9 mg/kg
